Reference: patent publication US7692004B2, “Use of metal complex compounds as oxidation catalysts” (Ciba Specialty Chemicals Corporation, priority 2001, dated 2010)

How the values were obtained:
[1] = Bleaching action in washing agents (LINITEST, DY increase); conditions: 1:1 Mn complex with ligand, H2O2 8.6 mmol/l, 30 minutes at 40° C.
Description: 7.5 g of white cotton fabric and 2.5 g of tea-stained cotton fabric are treated in 80 ml of washing liquor. The liquor contains a standard washing agent (ECE, 456 IEC) in a concentration of 7.5 g/l. The hydrogen peroxide concentration is 8.6 mmol/l. […] The washing process is carried out in a steel beaker in a LINITEST apparatus for 30 minutes at 40° C. For evaluating the bleaching results, the increase in the lightness DY (difference in lightness according to CIE) of the stains brought about by the treatment is determined spectrophotometrically in comparison with values obtained without the addition of catalyst.

[2] = Cleaning performance on soiled surfaces at 53° C.; conditions: for Difference (rating minus rating of reference): 1:1 manganese complex 7.3 μM, 53° C., reference = catalyst-free system; for Rating: 1:1 manganese complex with ligand 7.3 μM, H2O2 1.1 mM, pH 10.0, 23° to 53° C., visual scale 1 (no cleaning) to 10 (clean)
Description: (§1) A tea-stained cup is filled with 100 ml of a buffer solution (10 mM carbonate, pH=10.0) containing 1.1 mM of hydrogen peroxide and 7.3 μM of 1:1 manganese complex (prepared as described in Application Example 2). Using a thermostat, the temperature of the solution is raised from 23° to 53° C. over a period of 12 minutes and maintained at the final temperature for 23 minutes. After rinsing and drying in air, the results are evaluated visually on a scale of 1 (no cleaning) to 10 (clean). The catalyst-free system is used as reference.

[3] = Decomposition of hydrogen peroxide (iodometric); conditions: 1:1 manganese complex with ligand 7.3 μM, initial H2O2 1.1 mM
Description: as §1
The procedure is as in Application Example 3 but the consumption of H2O2 is determined iodometrically.

[4] = Activity of the manganese catalysts after the bleaching cycle; conditions: for Difference DDY: versus H2O2 without Mn complex
Description: 7.5 g of white cotton fabric and 2.5 g of tea-stained cotton fabric are treated in 80 ml of washing liquor. The liquor contains a standard washing agent (ECE, 456 IEC) in a concentration of 7.5 g/l. The hydrogen peroxide concentration is 8.6 mmol/l. The catalyst concentration (1:1 complex of manganese(II) chloride tetrahydrate with the ligand in question, prepared in methanolic solution with the addition of a small amount of lithium hydroxide) is 50 μmol/l. The washing process is carried out in a steel beaker in a LINITEST apparatus for 30 minutes at 40° C. For evaluating the bleaching results, the increase in the lightness DY (difference in lightness according to CIE) of the stains brought about by the treatment is determined spectrophotometrically in comparison with values obtained without the addition of catalyst.
The procedure as described in Application Example 2 is carried out for the 1st cycle, the cotton fabric is removed and for the 2nd cycle the procedure is carried out afresh with a new, as yet untreated cotton fabric. The DY values are determined as described in Application Example 2.

[5] = Action as catalyst for DTI (dye transfer inhibition); conditions: 1:1 manganese complex 50 μmol/l; H2O2 8.6 mmol/l; Direct Brown 172 10 mg/l; 30 minutes at 40° C.
Description: 7.5 g of white cotton fabric are treated in 80 ml of washing liquor. The liquor contains a standard washing agent (ECE, 456 IEC) in a concentration of 7.5 g/l. The hydrogen peroxide concentration is 8.6 mmol/l. The catalyst concentration (of manganese(II) chloride tetrahydrate with the ligand, prepared in methanolic solution with the addition of a small amount of lithium hydroxide) is 50 μmol/l, and a solution of the test dye Direct Brown 172 having 10 mg/l of the 250% formulation. The washing process is carried out in a steel beaker in a LINITEST apparatus for 30 minutes at 40° C. For testing the activity of the catalysts, the DTI activity is determined.
The reflection spectra of the samples were measured using a SPECTRAFLASH 2000 and converted into lightness values (D65/10) in accordance with a standard CIE procedure.

[6] = Catalytic action for the epoxidation of olefins; conditions: ligand 0.05 mmol with manganese(II) acetate tetrahydrate 0.04 mmol, sodium ascorbate, H2O2; 14 hours at room temperature; by 1H-NMR
Description: 17 mg (0.05 mmol) of 2-[(2-hydroxy-ethyl)-[2,2′;6′,2″]terpyridin-4′-yl-amino]-ethanol (L7, Example 7), 10 mg (0.04 mmol) of manganese(II) acetate tetrahydrate and 0.32 mmol of sodium ascorbate are added to a solution of 1.09 ml (10 mmol) of ethyl acrylate in 0.5 ml of acetonitrile. The mixture is cooled in an ice bath and a 30% strength hydrogen peroxide solution (2.27 g, 20 mmol) is added dropwise thereto in the course of 20 minutes. The mixture is then left for 14 hours at room temperature, then diluted with diethyl ether and the phases are separated. The organic extract is dried over sodium sulfate, filtered and concentrated. The catalytic turnover number for the epoxide formed, ethyl oxirane-2-carboxylate, is determined by comparing the intensity of the epoxide methine proton at 3.34-3.38 ppm with the ligand signal L7 at 8.53 ppm as reference and is 35±8. Ethyl oxirane-2-carboxylate, epoxide signals ^1H-NMR (360 MHz, CDCl3): 2.68-2.89 (m, 2H, CH2); 3.34-3.38 (m, 1H, CH). Without the addition of ligand, epoxide cannot be detected.

[7] = Catalytic bleaching of cellulose; conditions: catalytically bleached; 20 μM catalyst, 8.6 mM H2O2, pH 10.0, 40° C., 30 minutes; untreated sample 63.4
Description: 20 g of cellulose [TPP-CT CSF129, Ref. No. P-178635 (ISO 57.4)] are steeped in a litre of water for 65 hours and then stirred in a mixer for 2 minutes to give a paste-like pulp. A bleaching bath containing 50 g of the pulp so prepared in 180 ml of water, 100 μM of Dequest 2041 (sequestering agent), 8.6 mM of hydrogen peroxide and 20 μM of catalyst from Example 35 is maintained at 40° C. for 30 minutes. At the same time 1N sodium hydroxide solution is metered-in in such a manner that a pH of 10.0 is maintained. Filtration and air-drying are then carried out. A sample that has been compressed to form a circular sheet of 10 cm diameter is then tested for the lightness Y obtained (according to CIE, reflectance spectroscopy).

[8] = Cleaning performance on soiled surfaces at 23° C.; conditions: 0.16 g/l, constant 23° C., 45 minutes
Description: as §1
The procedure is as in Application Example 3 but the cleaning is carried out at a constant temperature of 23° C. (duration: 45 minutes).

[9] = 50 μmol/l, ECE washing agent 7.5 g/l, versus no catalyst

Structure (SMILES) | DY increase [1, 9] | Difference (rating minus rating of reference) [2] | Rating [2] | further results
NNc1cc(-c2ccccn2)nc(-c2ccccn2)c1 [Ligand L4, [2,2′;6′,2″]Terpyridin-4′-yl-hydrazine] | 5.0 |  |  | 
c1ccc(-c2cc(N3CCCCCC3)cc(-c3ccccn3)n2)nc1 [Ligand L9, 4′-Azepan-1-yl-[2,2′;6′,2″]terpyridine] | 3.8 |  |  | 
CN(CCO)c1ccnc(-c2cc(=O)cc(-c3cc(N(C)CCO)ccn3)[nH]2)c1 [Ligand L19, 4,4″-Bis[(2-hydroxy-ethyl)-methyl-amino]-1′H-[2,2′;6′,2″]terpyridin-4′-one] |  |  |  | DY increase ([1]; half concentration used): 5.3^1)
CN(CCO)c1ccnc(-c2cc(N(C)CCO)cc(-c3cc(N(C)CCO)ccn3)n2)c1 [Ligand L25, 2-({4′,4″-Bis[(2-hydroxy-ethyl)methyl-amino]-[2,2′;6′,2″]terpyridin-4-yl}-methylamino)-ethanol] | 6.2 |  |  | 
O=c1cc(-c2cc(N3CCCC3)ccn2)[nH]c(-c2cc(N3CCCC3)ccn2)c1 [Ligand L18, 4,4″-Di-pyrrolidin-1-yl-1′H-[2,2′;6′,2″]terpyridin-4′-one] | 3.0 |  |  | 
O=c1cc(-c2ccccn2)[nH]c(-c2ccccn2)c1 [Ligand L1, 1′H-[2,2′;6′,2″]Terpyridin-4′-one] | 5.0 | 1.9 | 5.0 (3.1) | Residual H2O2 ([3]; procedure of Application Example 3): 0.73 mM; Consumption ([3]; H2O2 consumption): 34%
OCCN(CCO)c1cc(-c2ccccn2)nc(-c2ccccn2)c1 [Ligand L7, 2-[(2-Hydroxy-ethyl)-[2,2′;6′,2″]terpyridin-4′-yl-amino]-ethanol] | 5.6 | 3.6 | 6.9 (3.3) | Bleaching value with H2O2 and the 1:1 Mn complex (DY) ([4]; 1st cycle): DY = 23.0; Difference DDY ([4]; 1st cycle): 8.1; Bleaching value with H2O2 and the 1:1 Mn complex (DY) ([4]; 2nd cycle, same liquor, new fabric): DY = 19.0; Difference DDY ([4]; 2nd cycle): 8.0; DTI activity a [5]: 90%; Catalytic turnover number for the epoxide formed, ethyl oxirane-2-carboxylate [6]: 35±8
CN1CCN(c2cc(-c3ccccn3)nc(-c3ccccn3)c2)CC1 [Ligand L8, 4′-(4-Methyl-piperazin-1-yl)-[2,2′;6′,2″]terpyridine] | 5.0 |  |  | 
CN(CCO)c1cc(-c2ccccn2)nc(-c2ccccn2)c1 [Ligand L5, 2-(Methyl-[2,2′;6′,2″]terpyridin-4′-yl-amino)-ethanol] | 5.2 |  |  | 
CCOc1ccnc(-c2cc(N(CCO)CCO)cc(-c3cc(OCC)ccn3)n2)c1 [Ligand L28, 2-[(4,4″-Diethoxy-[2,2′;6′,2″]terpyridin-4′-yl)-(2-hydroxy-ethyl)-amino]-ethanol] | 4.3 | 2.2 | 5.2 (3.0) | 
c1ccc(-c2cc(N3CCCC3)cc(-c3ccccn3)n2)nc1 [Ligand L6, 4′-Pyrrolidin-1-yl-[2,2′;6′,2″]terpyridine] | 5.8 | 3.9 | 7.2 (3.3) | 
CCOc1ccnc(-c2cc(=O)cc(-c3cc(OCC)ccn3)[nH]2)c1 [Ligand L17, 4,4″-Diethoxy-1′H-[2,2′;6′,2″]terpyridin-4′-one] | 5.3 |  |  | 
c1ccc(-c2cc(N3CCOCC3)cc(-c3ccccn3)n2)nc1 [Ligand L11, 4′-Morpholin-4-yl-[2,2′;6′,2″]terpyridine] | 5.5 | 2.4 | 5.7 (3.3) | 
c1ccc(-c2cc(N3CCCCC3)cc(-c3ccccn3)n2)nc1 [Ligand L10, 4′-Piperidin-1-yl-[2,2′;6′,2″]terpyridine] | 4.4 | 2.1 | 5.2 (3.1) | 
COc1ccccc1-c1cccc(-c2cccc(-c3cccc(-c4ccccc4OC)n3)n2)n1 [Ligand L29, 6,6″-Bis(2-methoxyphenyl)-2,2′:6′:2″-terpyridine] |  |  |  | Lightness Y [7]: 66.9
CC(=O)N(CCN(C(C)=O)C(C)=O)C(C)=O [N,N′-tetraacetylethylenediamine (TAED), N,N,N′,N′-tetraacetylethylenediamine] |  |  |  | Difference (rating minus rating of reference) [8]: 2.9; Rating ([8]; scale 1 to 10): 6.8 (3.9)
